The source of these data is publication PMC12046209, “Structure, Oligomerization, and Thermal Stability of a Recently Discovered Old Yellow Enzyme” (Proteins, 2025).

This assay concerns the target T1, FOYE (Old Yellow Enzyme from Ferrovum sp. JA12) (Ferrovum sp., UniProt Z9U1E9MGE1).
T1 construct: pET-28a(+), N-terminal 6xHis tag with thrombin site (removal not described; two tag residues visible in crystal); E. coli BL21(DE3) Star pLysS; homotetramer
T1 sequence (Z9U1E9MGE1 20-373): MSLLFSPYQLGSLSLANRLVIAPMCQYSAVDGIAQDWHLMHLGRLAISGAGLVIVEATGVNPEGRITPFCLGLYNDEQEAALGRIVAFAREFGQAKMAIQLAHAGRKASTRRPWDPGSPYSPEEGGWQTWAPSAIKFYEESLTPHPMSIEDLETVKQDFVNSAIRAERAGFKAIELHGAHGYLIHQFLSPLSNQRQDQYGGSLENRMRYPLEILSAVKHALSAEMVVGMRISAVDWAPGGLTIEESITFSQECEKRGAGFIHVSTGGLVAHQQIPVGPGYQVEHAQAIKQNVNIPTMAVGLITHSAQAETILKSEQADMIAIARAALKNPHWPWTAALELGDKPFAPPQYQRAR
Put plainly: X-ray crystal structure. The following applies: co-purified cofactor, present in all four protomers; crystals from Morpheus II condition E4, 20°C. The class given is binding.

As to `Cc1cc2nc3c(=O)[nH]c(=O)nc-3n(C[C@H](O)[C@H](O)[C@H](O)COP(=O)(O)O)c2cc1C` [FMN], the X-ray crystal structure entry is “The electron density for the FMN is clearly visible in all the protomers”.
